What was measured:
Type in all cases: in vivo
[1] = system: Alopecurus myosuroides (ALOMY); assay: Pre-emergence herbicidal activity, glasshouse pot test; details: Alopecurus myosuroides, 480 h, rate 500 g/ha, evaluated after 20 days, read-out: Pre-emergence activity, ALOMY (100=total damage to plant; 0=no damage to plant)
Procedure: (§1) Monocotyledonous and dicotyledonous test plants were sown in sterilised standard soil in pots. After cultivation for one day (pre-emergence) or after 10 days cultivation (post-emergence) under controlled conditions in a glasshouse, the plants were sprayed with an aqueous spray solution derived from the formulation of the technical active ingredient in 0.6 ml acetone and 45 ml formulation solution containing 10.6% Emulsogen EL (Registry number 61791-12-6), 42.2% N-methylpyrrolidone, 42.2% dipropylene glycol monomethyl ether (Registry number 34590-94-8) and 0.2% X-77 (Registry number 11097-66-8). The test plants were then grown in a greenhouse under optimum conditions until, 14 or 15 days later for post-emergence and 20 days for pre-emergence, the test was evaluated (100=total damage to plant; 0=no damage to plant). Alopecurus myosuroides (ALOMY), Avena fatua (AVEFA), Lolium perenne (LOLPE), Setaria faberi (SETFA), Digitaria sanguinalis (DIGSA), Echinochloa crus-galli (ECHCG) Pre-Emergence Activity

Avena fatua (AVEFA) [2] = assay: as above; details: Avena fatua, 480 h, rate 500 g/ha, evaluated after 20 days, read-out: Pre-emergence activity, AVEFA (100=total damage to plant; 0=no damage to plant)
Procedure: as §1

[3] = system: Digitaria sanguinalis (DIGSA); assay: as above; details: Digitaria sanguinalis, 480 h, rate 500 g/ha, evaluated after 20 days, read-out: Pre-emergence activity, DIGSA (100=total damage to plant; 0=no damage to plant)
Procedure: as §1

[4] = system: Echinochloa crus-galli (ECHCG); assay: as above; details: Echinochloa crus-galli, 480 h, rate 500 g/ha, evaluated after 20 days, read-out: Pre-emergence activity, ECHCG (100=total damage to plant; 0=no damage to plant)
Procedure: as §1

Lolium perenne (LOLPE) [5] = assay: as above; details: Lolium perenne, 480 h, rate 500 g/ha, evaluated after 20 days, read-out: Pre-emergence activity, LOLPE (100=total damage to plant; 0=no damage to plant)
Procedure: as §1

Setaria faberi (SETFA) [6] = assay: as above; details: Setaria faberi, 480 h, rate 500 g/ha, evaluated after 20 days, read-out: Pre-emergence activity, SETFA (100=total damage to plant; 0=no damage to plant)
Procedure: as §1

[7] = system: Alopecurus myosuroides (ALOMY); assay: Post-emergence herbicidal activity, glasshouse pot test; details: Alopecurus myosuroides, rate 125 g/ha, evaluated after 14 or 15 days, read-out: Post-emergence activity, ALOMY (100=total damage to plant; 0=no damage to plant)
Procedure: as §1, with “Post-Emergence” for “Pre-Emergence”

Avena fatua (AVEFA) [8] = assay: as above; details: Avena fatua, rate 125 g/ha, evaluated after 14 or 15 days, read-out: Post-emergence activity, AVEFA (100=total damage to plant; 0=no damage to plant)
Procedure: as §1, with “Post-Emergence” for “Pre-Emergence”

[9] = system: Digitaria sanguinalis (DIGSA); assay: as above; details: Digitaria sanguinalis, rate 125 g/ha, evaluated after 14 or 15 days, read-out: Post-emergence activity, DIGSA (100=total damage to plant; 0=no damage to plant)
Procedure: as §1, with “Post-Emergence” for “Pre-Emergence”

[10] = system: Echinochloa crus-galli (ECHCG); assay: as above; details: Echinochloa crus-galli, rate 125 g/ha, evaluated after 14 or 15 days, read-out: Post-emergence activity, ECHCG (100=total damage to plant; 0=no damage to plant)
Procedure: as §1, with “Post-Emergence” for “Pre-Emergence”

Lolium perenne (LOLPE) [11] = assay: as above; details: Lolium perenne, rate 125 g/ha, evaluated after 14 or 15 days, read-out: Post-emergence activity, LOLPE (100=total damage to plant; 0=no damage to plant)
Procedure: as §1, with “Post-Emergence” for “Pre-Emergence”

Setaria faberi (SETFA) [12] = assay: as above; details: Setaria faberi, rate 125 g/ha, evaluated after 14 or 15 days, read-out: Post-emergence activity, SETFA (100=total damage to plant; 0=no damage to plant)
Procedure: as §1, with “Post-Emergence” for “Pre-Emergence”

Row | SMILES | pest or weed control at 500 g/ha [1] [%] | pest or weed control at 500 g/ha (Avena fatua (AVEFA) [2]) [%] | pest or weed control at 500 g/ha [3] [%] | pest or weed control at 500 g/ha [4] [%] | pest or weed control at 500 g/ha (Lolium perenne (LOLPE) [5]) [%] | pest or weed control at 500 g/ha (Setaria faberi (SETFA) [6]) [%] | pest or weed control at 125 g/ha [7] [%] | pest or weed control at 125 g/ha (Avena fatua (AVEFA) [8]) [%] | pest or weed control at 125 g/ha [9] [%] | pest or weed control at 125 g/ha [10] [%] | pest or weed control at 125 g/ha (Lolium perenne (LOLPE) [11]) [%] | pest or weed control at 125 g/ha (Setaria faberi (SETFA) [12]) [%]
1 | CCc1cc(C)cc(CC)c1C1=C(OC(=O)CC2CCCC2)CC2(CCOCC2)CC1=O [Compound P11] | 100 | 90 | 100 | 90 | 90 | 100 | 90 | 100 | 70 | 70 | 90 | 70
2 | CCc1cc(C)cc(CC)c1C1=C(OC(=O)C2CCCCC2)CC2(CCOCC2)CC1=O [Compound P12] | 100 | 100 | 100 | 100 | 100 | 100 | 80 | 90 | 90 | 100 | 100 | 90
3 | CCc1cc(C)cc(CC)c1C1=C(OC(=O)C(C)CC)CC2(CCOCC2)CC1=O (stereo not drawn) [Compound P13] | 100 | 100 | 100 | 100 | 100 | 100 | 90 | 100 | 100 | 100 | 90 | 90
4 | CCc1cc(C)cc(CC)c1C1=C(OC(=O)C(CC)CC)CC2(CCOCC2)CC1=O [Compound P14] | 100 | 100 | 100 | 90 | 100 | 100 | 80 | 80 | 70 | 60 | 80 | 60
5 | CCOC(=O)OC1=C(c2c(CC)cc(C)cc2CC)C(=O)CC2(CCOCC2)C1 [Compound P16] | 100 | 100 | 100 | 100 | 100 | 100 | 100 | 90 | 100 | 100 | 100 | 70
6 | CCc1cc(C)cc(CC)c1C1=C(OC(=O)OCc2ccccc2)CC2(CCOCC2)CC1=O [Compound P17] | 100 | 100 | 100 | 100 | 100 | 100 | 90 | 80 | 70 | 70 | 80 | 70
7 | CCc1cc(C)cc(CC)c1C1=C(OC(=O)Oc2ccccc2)CC2(CCOCC2)CC1=O [Compound P18] | 100 | 100 | 100 | 80 | 100 | 100 | 80 | 100 | 70 | 100 | 90 | 50
8 | CCc1cc(C)cc(CC)c1C1=C(OC(=O)OCC(C)(C)C)CC2(CCOCC2)CC1=O [Compound P19] | 100 | 100 | 100 | 100 | 100 | 100 | 90 | 90 | 70 | 100 | 90 | 70
9 | CCc1cc(C)cc(CC)c1C1=C(OC(=O)OCC(C)C)CC2(CCOCC2)CC1=O [Compound P20] | 100 | 100 | 100 | 100 | 100 | 100 | 90 | 100 | 70 | 100 | 90 | 70
10 | C=CCOC(=O)OC1=C(c2c(CC)cc(C)cc2CC)C(=O)CC2(CCOCC2)C1 [Compound P21] | 100 | 100 | 100 | 100 | 100 | 100 | 100 | 100 | 100 | 100 | 90 | 90
11 | C#CCOC(=O)OC1=C(c2c(CC)cc(C)cc2CC)C(=O)CC2(CCOCC2)C1 [Compound P22] | 100 | 100 | 100 | 100 | 100 | 100 | 90 | 100 | 100 | 90 | 90 | 90
12 | CCc1cc(C)cc(CC)c1C1=C(OS(C)(=O)=O)CC2(CCOCC2)CC1=O [Compound P24] | 80 | 80 | 70 | 50 | 80 | 90 | 0 | 0 | 0 | 0 | 0 | 0

— US8084649B2, “Herbicides” (Syngenta Crop Protection, inc., priority 2007, dated 2011)
